In paper PMC2918268 (Biochemical pharmacology, 2010):

Experiments:
Assay in all cases: cell-free TR-FRET co-activator peptide displacement
Assay type in all cases: binding
Conditions in all cases: read-out: EC50
[1] = target: T1, estrogen-related receptor α (ERRα) (Homo sapiens, UniProt P11474)
T1 sequence (P11474 193-423 limits assumed): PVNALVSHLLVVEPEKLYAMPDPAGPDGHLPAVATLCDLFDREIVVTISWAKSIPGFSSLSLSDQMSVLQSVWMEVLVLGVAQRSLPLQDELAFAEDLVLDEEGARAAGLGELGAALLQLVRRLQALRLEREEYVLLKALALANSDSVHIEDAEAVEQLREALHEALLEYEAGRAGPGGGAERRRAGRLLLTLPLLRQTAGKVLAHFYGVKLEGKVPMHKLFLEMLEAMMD

[2] = target: T2, ERα (Homo sapiens, UniProt P03372)
T2 sequence (P03372 311-547 limits assumed): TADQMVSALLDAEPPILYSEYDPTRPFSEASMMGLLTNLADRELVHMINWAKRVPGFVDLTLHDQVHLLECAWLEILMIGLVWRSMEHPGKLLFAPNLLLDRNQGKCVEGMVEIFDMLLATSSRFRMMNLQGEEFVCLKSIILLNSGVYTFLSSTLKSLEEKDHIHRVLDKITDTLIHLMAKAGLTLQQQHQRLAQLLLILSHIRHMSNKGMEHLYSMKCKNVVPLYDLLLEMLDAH

[3] = target: ERβ (Homo sapiens, UniProt Q92731)
Sequence of ERβ (Q92731 264-498 limits assumed): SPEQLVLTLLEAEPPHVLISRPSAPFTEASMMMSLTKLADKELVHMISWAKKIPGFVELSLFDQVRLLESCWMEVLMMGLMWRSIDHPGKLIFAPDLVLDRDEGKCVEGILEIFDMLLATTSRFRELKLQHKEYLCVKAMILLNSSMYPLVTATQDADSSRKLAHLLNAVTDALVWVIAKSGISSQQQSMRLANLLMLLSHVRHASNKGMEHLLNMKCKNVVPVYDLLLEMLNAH

IC50 [1]: 700 ± 100 nM
IC50 [2]: 200 ± 200 nM
IC50 [3]: 500 ± 200 nM
SMILES: C[C@@H]1Cc2cc(O)ccc2[C@H]2CC[C@]3(C)/C(=C/COCCN(C)C)CC[C@H]3[C@H]12 [SR16388, 21-[2-(N,N-dimethylamino)ethyl]oxy-7a-methyl-19-norpregna-1,3,5(10),17(20)-tetraen-3-ol]
